Measured values from the supplement of paper PMC10627819.

Tests used:
Conditions in all cases: main component drawn
S. aureus Newman [1] = assay: fitness (endpoint OD595 vs no drug) (fraction); higher = more growth
How it was run: (§1)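 In 384-well plates at 37 °C, cultures began at OD595 0.01 in 30 µl, with 55 µl used for S. pneumoniae. OD595 readings every 30 min for 14 h were corrected by the first reading. Fitness divides the stationary-phase transition optical density by the robust mean of no-drug control wells. The result is capped at 1.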

B. subtilis 168 [2] = assay: as above
How it was run: as §1

S. pneumoniae D39V [3] = assay: as above
How it was run: as §1

S. aureus Newman [4] = assay: Bliss interaction score (quartile over a dose matrix) (fitness difference); higher = more antagonism (negative = synergy)
How it was run: (§2)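 The Bliss score is observed fitness minus expected fitness, where the expected value is the product of single-drug fitness values inferred from combination data. Fitness is OD595 at entry into stationary phase normalised to the plate's robust no-drug mean and capped at 1. Scores are reported as quartiles spanning technical, biological and donor/recipient replicates.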

S. aureus DSM 20231 = assay: as above
How it was run: as §2

B. subtilis 168 [5] = assay: as above
How it was run: as §2

S. pneumoniae D39V [6] = assay: as above
How it was run: as §2
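Throughout, for Bliss interaction score (quartile over a dose matrix): first quartile when negative (synergy) and third quartile when positive (antagonism).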
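Throughout, for fitness (endpoint OD595 vs no drug): OD595 on entry to stationary phase over no-drug wells; at most 1.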

CNC(C)C1CCC(N)C(OC2C(N)CC(N)C(OC3OCC(C)(O)C(NC)C3O)C2O)O1 (configuration not stated) [Gentamicin] + CC1=C\[C@@H](O)CC(=O)Cc2nc(co2)C(=O)N2CCC=C2C(=O)O[C@H](C(C)C)[C@H](C)/C=C/C(=O)NC\C=C\1 [Virginiamycin M1]
fitness
Conditions	partner 0.0625 µg/mL	partner 0.125 µg/mL	partner 0.25 µg/mL	partner 0.5 µg/mL	partner 1 µg/mL	partner 2 µg/mL
B. subtilis 168 [2], first compound 0.0625 µg/mL	0.895	0.897	0.905	–	–	–
B. subtilis 168 [2], first compound 0.25 µg/mL	0.0328	0.0454	0.0523	–	–	–
S. aureus Newman [1], first compound 0.5 µg/mL	0.959	0.996	0.995	–	–	–
S. aureus Newman [1], first compound 1 µg/mL	≥ 1	≥ 1	≥ 1	–	–	–
S. aureus Newman [1], first compound 2 µg/mL	≥ 1	≥ 1	≥ 1	–	–	–
S. pneumoniae D39V [3], first compound 2 µg/mL	–	–	–	0.973	≥ 1	0.952
S. pneumoniae D39V [3], first compound 4 µg/mL	–	–	–	0.99	≥ 1	0.973
S. pneumoniae D39V [3], first compound 8 µg/mL	–	–	–	0.991	≥ 1	0.943

fitness, one replicate
Conditions	first compound 1 µg/mL	first compound 2 µg/mL	first compound 4 µg/mL	first compound 8 µg/mL
S. aureus Newman [1], partner 0.5 µg/mL	0.849	0.873	0.22	–
S. aureus Newman [1], partner 1 µg/mL	0.961	≥ 1	0.0961	–
S. aureus Newman [1], partner 2 µg/mL	0.849	0.792	0.0867	–
S. pneumoniae D39V [3], partner 0.15 µg/mL	–	≥ 1	≥ 1	≥ 1
S. pneumoniae D39V [3], partner 0.3 µg/mL	–	≥ 1	≥ 1	0.944

Conditions	Bliss interaction score
B. subtilis 168 [5]	-0.0977
S. aureus DSM 20231	0.094
S. aureus Newman [4]	-0.0365
S. pneumoniae D39V [6]	0.0786

CNC(C)C1CCC(N)C(OC2C(N)CC(N)C(OC3OCC(C)(O)C(NC)C3O)C2O)O1 (configuration not stated) [Gentamicin] + CCN(CC)CCOC(=O)c1ccc(N)cc1 [Procaine]
fitness, S. aureus Newman [1], one replicate
Conditions	first compound 0.375 µg/mL	first compound 0.75 µg/mL	first compound 1.5 µg/mL
partner 85.5 µg/mL	≥ 1	≥ 1	≥ 1
partner 171 µg/mL	≥ 1	≥ 1	0.984
partner 342 µg/mL	≥ 1	≥ 1	≥ 1

fitness
Conditions	partner 85.5 µg/mL	partner 171 µg/mL	partner 342 µg/mL
B. subtilis 168 [2], first compound 0.0625 µg/mL	0.89	0.872	0.871
B. subtilis 168 [2], first compound 0.25 µg/mL	0.0903	0.0388	0.109
S. aureus Newman [1], first compound 0.5 µg/mL	–	0.975	0.925
S. aureus Newman [1], first compound 1 µg/mL	–	≥ 1	0.99
S. aureus Newman [1], first compound 2 µg/mL	–	≥ 1	0.944
S. pneumoniae D39V [3], first compound 2 µg/mL	≥ 1	0.981	0.968
S. pneumoniae D39V [3], first compound 4 µg/mL	≥ 1	0.977	0.944
S. pneumoniae D39V [3], first compound 8 µg/mL	0.938	0.965	0.935

Conditions	Bliss interaction score
B. subtilis 168 [5]	-0.101
S. aureus DSM 20231	0.0726
S. aureus Newman [4]	0.0373
S. pneumoniae D39V [6]	0.099
